US20250034264A1, “REGULATING T CELL IMMUNE RESPONSE THROUGH IGF-I RECEPTOR (IGF-1R)” (The Regents of the University of Michigan, priority 2021, published 2025)

Key:
Assay type in all cases: cell-based, human
GD-OF = assay: HAS1 and HAS2 mRNA, real-time PCR; conditions: teprotumumab 50 μg/ml or linsitinib 1 μM, 7-9 d
Description: (§1) FIGS. 13A-13B are graphs showing the effect of teprotumumab on bTSH induced hyaluronan (HA) production in GD-OF (FIG. 13A) and fibrocytes (FIG. 13B). GD-OF were treated with or without teprotumumab (50 μg/ml) or human Isotype IgG (5 μg/ml) for 7-9 d and stimulated with bTSH (5 mIU/mL) for graded intervals indicated along the abscissa for 0 to 96h. Media were collected and subjected to HA ELISA. Values were normalized to respective cell layer protein levels and expressed as the mean±SD of three independent determinations. Experiments were repeated three times. FIGS. 13C-13F are graphs showing the divergent pattern of hyaluronan synthase (HAS) isoenzyme induction by bTSH in fibrocytes versus GD-OF and effects of teprotumumab (FIGS. 13C and 13D) and linsitinib (FIGS. 13E and 13F). Confluent monolayers of GD-OF and fibrocytes remained untreated or received teprotumumab (50 μg/ml) or linsitinib (1 μM) and human Isotype IgG for 7-9 d. Some cultures were treated with bTSH (5 mIU/mL) for 6h. Cellular RNA was harvested mRNA was reverse transcribed, and cDNA subjected to quantitative real-time PCR for HAS1 and HAS2. Values were normalized to their respective GAPDH levels and are expressed as the mean±SD of three independent determinations. Experiments were repeated three times. *, P<0.05; **, p<0.01; ***. P<0.001.
(§2) Real-time PCR Confluent fibrocyte and GD-OF cultures were incubated with bTSH (5 mIU/mL), teprotumumab (50 μg/mL) or linsitinib (1 μM) for the time intervals indicated, washed with PBS and RNA was extracted with the Aurum Total RNA Mini Kit (cat. #732-6820, Bio-Rad, Hercules, CA). Cellular RNA (2 μg) was reverse transcribed using QuantiTect Reverse Transcription kit (cat. #205314, Qiagen (Germantown, MD) and real-time PCR was performed using an Applied Biosystems instrument with QuantiTect SYBR Green PCR kit (cat. no. 204143; Qiagen, Frederick, MD). Primer sequences were as follows.

fibrocytes [1] = assay: HAS1 and HAS2 mRNA, real-time PCR; conditions: teprotumumab 50 μg/ml or linsitinib 1 μM, 7-9 d
Description: as §1, §2

fibrocytes [2] = assay: IL-23p19 and IL-12p35 mRNA expression, real-time PCR; conditions: teprotumumab 50 μg/ml or linsitinib 1 μM, 7-9 d
Description: FIGS. 10A-10F are graphs showing the divergent effect of teprotumumab on bTSH induced IL-23p19 and IL-12p35 expression on fibrocytes and GD-OF. Rinsed fibrocyte and GD-OF monolayers were incubated with or without 50 μg/ml teprotumumab (FIGS. 10A and 10B) or 1 μM linsitinib (FIGS. 10C and 10D) and human Isotype IgG for 7-9 d, and bTSH (5 mIU/mL) was added for 6 h. Harvested RNA was reverse transcribed and isolated cDNA was subjected to quantitative real-time PCR for IL-23p19 and IL-12p35 mRNA levels. Values were normalized to their respective GAPDH levels and are expressed as the mean±SD of three independent determinations. Experiments were repeated three times. FIGS. 10E and 10F are graphs showing the levels of IL-23 protein when rinsed fibrocyte and GD-OF monolayers were incubated with or without 50 μg/ml teprotumumab. **, p<0.01; ***. P<0.001.
as §2

fibrocytes [3] = assay: Gene promoter activity assay (Secrete-Pair Dual Luminescence); conditions: 50 μg/mL
Description: Cell transfections, gene promoter assays and siRNA knockdown studies The nucleofection method was utilized to transfect fibrocytes with the U-023 program of the Nucleofector II instrument (Lonza, Walkersville, MD) and the Amaxa human CD34 cell nucleofection kit (cat. no. VPA-1003; Lonza). To assess human gene promoter activities, appropriate fragments described in earlier reports were selected and cloned for MHC II, CD80, CD86, and PD-L1. Confluent fibrocyte monolayers were treated with human Isotype IgG or teprotumumab (50 μg/mL) for 3 d. Cells were transfected with the following target gene promoter fragment sequences supplied by GeneCopoeia (Rockville, MD): MHC-2 (cat. #HPRM49526), −100 to +1429 nt; CD80 (cat. #HPRM45966), −300 to +1350 nt; CD86 (cat. #HPRM46979), −231 to +1272 nt; PD-L1 (cat. #HPRM40139), −237 to +1282 nt; and negative control clone PG04 (cat. #NEG-PG04). After 3-4 d, cells were incubated without or with bTSH (5 mU/mL) for 2 h. Monolayers were harvested and promoter activities measured using the Secrete-Pair Dual Luminescence Assay Kit (cat. #LF033, GeneCopoeia Rockville, MD) according to manufacturer's instructions in an FB12 tube luminometer (Zylux, Huntsville, AL). Values were normalized to internal controls and each experiment was performed at least three times. […]

teprotumumab
HAS2 expression, single agent or in combination with bTSH (GD-OF): induced
basal and bTSH-provoked expression of HAS1 (GD-OF): inhibited
HAS2 expression, single agent or in combination with bTSH (fibrocytes [1]): induced
basal and bTSH-provoked expression of HAS1 (fibrocytes [1]): inhibited
IL-12p35 expression, basal and induction by bTSH (fibrocytes [2]): enhances
IL-23p19 expression, basal and induction by bTSH (fibrocytes [2]): inhibited
activities of MHC II, CD80, CD86, PD-L1 gene promoter fragments (fibrocytes [3]; 3 days): downregulated
bTSH induction of each gene promoter fragment (fibrocytes [3]; bTSH 2 h): attenuated
